The values below come from paper PMC3159312 (Enzyme Research, 2011).

Assay [1] addresses T1, MtUGM (Mycobacterium tuberculosis, UniProt P9WIQ1).
T1 construct: made in house
The assay is described as follows: FP binding assay to determine chromophore binding affinities (MtUGM). The following applies: UDP-fluorescent probes, fluorescence anisotropy; read-out: K d for MtUGM. Background: Polarisation of emitted light reports the rotation of a fluorescent probe.

The target of assay [2] is T2, AfUGM (Aspergillus fumigatus, UniProt Q4W1X2).
T2 construct: made in house
T2 sequence (Q4W1X2 whole entry): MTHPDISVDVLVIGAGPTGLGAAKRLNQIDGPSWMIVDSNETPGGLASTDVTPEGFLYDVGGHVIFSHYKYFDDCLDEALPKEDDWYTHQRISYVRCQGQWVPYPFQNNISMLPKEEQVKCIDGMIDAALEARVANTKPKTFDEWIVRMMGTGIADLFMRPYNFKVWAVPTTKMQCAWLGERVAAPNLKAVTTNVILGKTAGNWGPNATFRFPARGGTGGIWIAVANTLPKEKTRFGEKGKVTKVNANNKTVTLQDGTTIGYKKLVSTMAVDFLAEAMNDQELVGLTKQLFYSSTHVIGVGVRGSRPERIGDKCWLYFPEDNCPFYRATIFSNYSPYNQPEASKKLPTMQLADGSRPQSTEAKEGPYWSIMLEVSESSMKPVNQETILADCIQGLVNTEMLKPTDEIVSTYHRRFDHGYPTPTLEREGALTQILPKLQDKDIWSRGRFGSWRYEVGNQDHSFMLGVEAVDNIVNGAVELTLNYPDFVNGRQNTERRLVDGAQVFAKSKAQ
Nature of the assay: FP binding assay to determine chromophore binding affinities (AfUGM). The following applies: for Kd: UDP-fluorescent probes, 15 nM chromophore, serially diluted AfUGM, 0.05 M sodium phosphate pH 7.0, fluorescence anisotropy, read-out: K d for AfUGM; for Binding to AfUGM relative to the UDP-fluorescein analogs (times better): ratio of Kd values. On the procedure: Solutions containing various concentrations of chromophore in 0.05 M sodium phosphate buffer (pH 7.0) were added to 12 wells in a 96-well half area black bottom plate (Corning) with final volumes of 25 μL. FP was analyzed by a SpectraMax M5 plate reader (Molecular Devices). The parallel fluorescence emission (F=) and perpendicular fluorescence emission (F⊥) at 524 nm (for compounds 1 and 2, excitation at 492 nm) or at 584 nm (for compounds 3 and 4, excitation at 544 nm) were measured by a SpectraMax M5 plate reader (Molecular Devices), and the anisotropy (r) was calculated using (1), the minimal concentration at which stable FP signals with minimal standard deviations were chosen as the optimal concentration for the chromophore.
(1) r=F=−G·F⊥/F=+2G·F⊥ (2) y=m1+(m2−m1) ×(x+Ct+m3)−(x+Ct+m3)^2−4xCt/2Ct
Solutions containing serially diluted AfUGM and 15 nM of chromophore in 0.05 M sodium phosphate buffer (pH 7.0) were incubated at room temperature for 5 minutes. Each experiment was done in triplicate in a 96-well black bottom plate at final volumes of 25 μL. Fluorescence anisotropy was measured as indicated above, and the K d values were obtained by fitting the anisotropy data to (2), where m 1 and m 2 are the minimum and maximum anisotropy values, respectively; m 3 is the K d value, and the total concentration of UDP-chromophore is represented by C t.

The target in assay [3] is T1, MtUGM. The assay is described as follows: Competitive binding FP inhibition assay (MtUGM). On the procedure:
(§1) Each solution was done in triplicate. Anisotropy values were measured and the IC50 values obtained by fitting the data to (4), where m 1 and m 2 are the minimum and maximum anisotropy, respectively; m 3 is the slope, and m4 is the IC50.

The target of assay [4] is T2, AfUGM. The assay is described as follows: AfUGM activity assay (formation of UDP-Galp from UDP-Galf by HPLC). It is filed as biochemical. As to conditions: 0.5 mM UDP-Galf, 50 nM AfUGM, 37°C, 10 min. On the procedure: A 20 μL reaction containing 20 mM dithiothreitol, 0.5 mM UDP-Galf in 25 mM HEPES, 125 mM NaCl buffer, pH 7.5 in the absence of 7 or 8 was initiated by the addition of AfUGM at a final concentration of 50 nM. After incubation at 37°C for 10 min, the reaction was quenched by heat denaturation (95°C for 5 min) in a DNA engine thermocycler (BioRad, Hercules, Calif, USA). The same reaction was also performed in the presence of 7 (500 μM) or 8 (50 μM). The suspension was centrifuged and the supernatant was injected onto a CarboPac PA100 (Dionex) anion-exchange column. The sample was eluted isocratically with 75 mM KH2PO4 (pH 4.5), and the absorbance at 262 nm was monitored to identify fractions of substrate and product.

For assay [5], the target named is T2, AfUGM. Nature of the assay: Competitive binding experiments using FP inhibition assay (AfUGM, chromophore 3 as probe). On the procedure: as §1
Assay [6] addresses T2, AfUGM. The following applies: previously determined; read-out: K d for AfUGM by directly monitoring the flavin fluorescence; cited from earlier work.

Where two headings read alike, the source gives them in different places.

T1 sequence (P9WIQ1 whole entry): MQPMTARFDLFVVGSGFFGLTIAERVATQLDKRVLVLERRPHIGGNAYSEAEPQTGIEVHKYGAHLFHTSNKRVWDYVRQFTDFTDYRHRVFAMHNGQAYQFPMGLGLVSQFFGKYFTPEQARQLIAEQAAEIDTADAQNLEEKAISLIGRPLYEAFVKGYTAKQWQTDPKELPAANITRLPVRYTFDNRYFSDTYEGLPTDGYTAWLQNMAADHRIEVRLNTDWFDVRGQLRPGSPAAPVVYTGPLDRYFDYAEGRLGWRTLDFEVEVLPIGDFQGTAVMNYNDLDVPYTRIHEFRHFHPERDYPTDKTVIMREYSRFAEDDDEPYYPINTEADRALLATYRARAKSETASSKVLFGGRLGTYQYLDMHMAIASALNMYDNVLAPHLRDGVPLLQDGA

Regarding `CN(C)c1ccc2c(-c3ccc(C(=O)NCCOP(=O)(O)OP(=O)(O)OCC4OC(n5ccc(=O)[nH]c5=O)C(O)C4O)cc3C(=O)[O-])c3ccc(=[N+](C)C)cc-3oc2c1` (stereo not drawn) [Chromophore 4], in assay [1], the Kd is > 30000 nM. In assay [2], the Kd is 3000 ± 700 nM and the “Binding to AfUGM relative to the UDP-fluorescein analogs (times better)” value is reported as ~ 6 times.
In the same order, the values of `CN(C)c1ccc2c(-c3ccc(C(=O)NCCCCCCOP(=O)(O)OP(=O)(O)OCC4OC(n5ccc(=O)[nH]c5=O)C(O)C4O)cc3C(=O)[O-])c3ccc(=[N+](C)C)cc-3oc2c1` (stereo not drawn) [Chromophore 3] are 730 ± 70 nM, 2600 ± 200 nM and ~ 6 times.
In the case of `O=C(Nc1ccccc1C(=O)O)c1ccc2c(c1)C(=O)N(c1ccc(Br)cc1)C2=O` [compound 7], the values for the Kd in assay [3] and in assay [5] were 21 ± 1 µM and 140 ± 9 µM, respectively. Moreover, the “Inhibition of AfUGM activity (conversion of UDP-Galf to UDP-Galp, HPLC)” value in assay [4] (inhibitor 500 μM) is “inhibit the activity of AfUGM”.
For `O=C1N/C(=N/S(=O)(=O)c2ccccc2)S/C1=C1/C(=O)Nc2ccc([N+](=O)[O-])cc21` [compound 8], the Kd in assay [3] worked out at 25 ± 2 µM; in assay [5], 11 ± 0.4 µM. Also, the “Inhibition of AfUGM activity (conversion of UDP-Galf to UDP-Galp, HPLC)” value in assay [4] (inhibitor 50 μM) is recorded as “inhibit the activity of AfUGM”.
Regarding `O=c1ccn([C@@H]2O[C@H](COP(=O)(O)OP(=O)(O)O)[C@@H](O)[C@H]2O)c(=O)[nH]1` [UDP], the Kd was 15 ± 2 µM in assay [3] (UGM ligands, FP competition, read-out: K d for MtUGM); 33 ± 9 µM in assay [6]; 9 ± 1.7 µM in assay [5] (read-out: K d for AfUGM).
